The values that follow come from patent US12391683B2, “Therapeutic compounds and methods” (Actio Biosciences, Inc., priority 2022, dated 2025).

One data set deals with T1, TRPC6 channels (Homo sapiens, UniProt Q9Y210).
T1 construct: expressed in transfected cells; host or cells: HEK293
T1 sequence (Q9Y210 1-931): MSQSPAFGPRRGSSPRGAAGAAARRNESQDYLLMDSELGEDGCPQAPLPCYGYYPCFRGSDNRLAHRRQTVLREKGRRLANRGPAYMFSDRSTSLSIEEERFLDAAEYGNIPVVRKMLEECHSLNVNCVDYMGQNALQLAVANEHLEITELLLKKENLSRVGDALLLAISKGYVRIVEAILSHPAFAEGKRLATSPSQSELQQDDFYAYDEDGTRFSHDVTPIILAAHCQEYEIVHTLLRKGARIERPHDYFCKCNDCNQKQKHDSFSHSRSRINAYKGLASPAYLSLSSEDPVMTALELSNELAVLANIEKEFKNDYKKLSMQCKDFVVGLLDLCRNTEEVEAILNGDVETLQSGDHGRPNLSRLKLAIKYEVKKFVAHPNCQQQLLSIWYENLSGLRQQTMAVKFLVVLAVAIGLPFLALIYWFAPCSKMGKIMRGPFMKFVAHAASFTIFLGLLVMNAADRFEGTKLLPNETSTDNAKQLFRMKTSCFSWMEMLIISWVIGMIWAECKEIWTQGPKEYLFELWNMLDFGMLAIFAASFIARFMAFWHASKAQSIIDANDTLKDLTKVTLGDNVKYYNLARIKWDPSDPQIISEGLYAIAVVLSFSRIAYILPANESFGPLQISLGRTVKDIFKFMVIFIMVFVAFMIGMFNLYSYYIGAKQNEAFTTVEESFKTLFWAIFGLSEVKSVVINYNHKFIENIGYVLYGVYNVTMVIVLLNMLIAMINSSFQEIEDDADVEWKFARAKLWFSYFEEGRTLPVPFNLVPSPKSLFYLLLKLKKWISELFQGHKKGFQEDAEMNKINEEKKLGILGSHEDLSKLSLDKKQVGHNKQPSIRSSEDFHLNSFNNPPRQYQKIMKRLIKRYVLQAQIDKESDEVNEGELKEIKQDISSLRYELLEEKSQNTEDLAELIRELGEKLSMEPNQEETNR
Kind of data set: TRP Family FLIPR Assay, TRPC6. The data set is classed as cell-based. As to conditions: HEK293 cells. As for the experimental part: (§1) The compound of Example 5 was tested for selectivity against a panel of Human TRP family ion channels in a TRP Family FLIPR Assay as described below. • 1. TRPC3 channels (human TRPC3 variant 1 gene, expressed in HEK293 cells). • 2. TRPC4 channels (human TRPC4 gene, expressed in HEK293 cells). • 3. TRPC5 channels (human TRPC5 gene, expressed in HEK293 cells). • 4. TRPC6 channels (human TRPC6 gene, expressed in HEK293 cells). • 5. TRPM2 channels (human TRPM2 gene, transiently expressed in HEK293 cells). • 6. TRPM3 channels (human TRPM3 gene, transiently expressed in HEK293 cells). • 7. TRPM4 channels (human TRPM4 gene, expressed in CHO cells). • 8. […]
(§2) Data acquisition was performed via the FLIPR Control software supplied with the FLIPR System (MDS-AT) and data was analyzed using Microsoft Excel (Microsoft Corp., Redmond, WA) or GraphPad Prism. […]
(§3) [formula] where Base is the response at low concentrations of test article, Max is the maximum response at high concentrations, xhalf the EC50, or IC50, the concentration of test article producing either half-maximal activation or inhibition, and rate is the Hill coefficient. […] No assumptions about the fit parameters was made; the fit parameters were determined by the algorithm.
(§4) The effect of each test article was evaluated at eight (8) concentrations: 0.003, 0.01, 0.03, 0.1, 0.3, 1, 3 and 10 μM, n≤4 wells/concentration). […]

Data set [1] relates to Hepatocytes. Kind of data set: Hepatocytes predicted clearance, rat.
The subject of data set [2] is Hepatocytes. Kind of data set: Hepatocytes predicted clearance, dog.
A further data set addresses Human TRPV4 (Homo sapiens, UniProt Q9HBA0). Kind of data set: TRP Family FLIPR Assay, TRPV4. The data set is classed as cell-based. More on the design: expressed in transfected cells; host or cells: CHO. The following applies: CHO cells. As for the experimental part: as §1, §2, §3, §4

Chain of Human TRPV4 (Q9HBA0 whole entry): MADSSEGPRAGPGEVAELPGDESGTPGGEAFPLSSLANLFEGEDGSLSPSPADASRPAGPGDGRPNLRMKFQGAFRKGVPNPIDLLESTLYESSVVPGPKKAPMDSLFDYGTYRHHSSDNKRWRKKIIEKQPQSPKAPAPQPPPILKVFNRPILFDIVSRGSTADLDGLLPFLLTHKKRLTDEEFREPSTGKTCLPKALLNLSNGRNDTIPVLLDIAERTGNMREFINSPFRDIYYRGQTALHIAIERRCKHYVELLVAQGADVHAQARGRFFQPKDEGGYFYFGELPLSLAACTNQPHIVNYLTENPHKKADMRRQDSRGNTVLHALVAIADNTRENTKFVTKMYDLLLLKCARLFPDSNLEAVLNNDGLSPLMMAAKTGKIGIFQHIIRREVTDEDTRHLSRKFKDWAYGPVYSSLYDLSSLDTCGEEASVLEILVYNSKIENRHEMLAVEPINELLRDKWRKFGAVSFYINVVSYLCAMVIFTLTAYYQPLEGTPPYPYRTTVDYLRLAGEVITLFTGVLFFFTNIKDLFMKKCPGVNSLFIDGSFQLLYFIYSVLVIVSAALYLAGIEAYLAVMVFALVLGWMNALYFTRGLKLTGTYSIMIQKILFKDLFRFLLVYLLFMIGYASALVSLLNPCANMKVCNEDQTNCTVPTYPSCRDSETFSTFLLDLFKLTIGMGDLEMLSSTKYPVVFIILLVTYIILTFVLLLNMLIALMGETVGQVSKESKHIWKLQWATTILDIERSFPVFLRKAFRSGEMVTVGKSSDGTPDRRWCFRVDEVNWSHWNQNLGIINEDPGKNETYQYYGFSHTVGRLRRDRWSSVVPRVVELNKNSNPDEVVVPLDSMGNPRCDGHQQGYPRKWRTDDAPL

The EC50 is the concentration at which the effect is half-maximal. The term IC50 denotes the concentration needed to halve the response being measured. As for `CC(C)(O)c1cnc(N2C[C@@]3(CC[C@@H](F)[C@](C)(Cn4cnc5ccc(C#N)cc54)C3)OC2=O)cn1` (single isomer, unassigned) [Example 5], the EC50 at TRPC6 channels (agonist mode, vs EMAX of Na-ATP 100 μM, read-out: EC50 hTRPC6) is greater than 10 µM; on Human TRPV4 (agonist mode, vs EMAX of GSK1016790A 3 μM, read-out: EC50 hTRPV4), greater than 10 µM. The IC50 at TRPC6 channels (antagonist mode, activated with 10 μM Na-ATP, 0.003-10 μM, read-out: IC50 hTRPC6) was greater than 10 µM; at Human TRPV4 (antagonist mode, activated with GSK1016790A 0.3 μM, 0.003-10 μM, read-out: IC50 hTRPV4), 0.014 µM. In the data set on Hepatocytes [1], the “Hepatocytes predicted clearance in rat” value was 7.67 mL/min/kg. The “Hepatocytes predicted clearance in dog” value in the data set with Hepatocytes [2] is 11 mL/min/kg.
